Test results from the NIST ThermoML archive (doi:10.1021/acs.jced.5b00197).

Test: refractive index (other wavelength) (dimensionless); xn = mol fraction of the nth substance listed
Conditions: 94.64 kPa, Liquid, Standard Abbe refractometry

CC(=O)O [acetic acid] + Cc1ccccc1
refractive index
Conditions | Wavelength=404.7 nm | Wavelength=435.8 nm | Wavelength=486.1 nm | Wavelength=546.1 nm | Wavelength=587.6 nm | Wavelength=632.8 nm | Wavelength=644 nm | Wavelength=706.5 nm
293.15 K, x1 = 0.146 | 1.51185 | 1.50406 | 1.49519 | 1.48808 | 1.4846 | 1.48156 | 1.48087 | 1.47771
293.15 K, x1 = 0.277 | 1.49627 | 1.48902 | 1.48081 | 1.47416 | 1.47093 | 1.4681 | 1.46744 | 1.46997
293.15 K, x1 = 0.397 | 1.48254 | 1.47576 | 1.4681 | 1.46191 | 1.45889 | 1.45622 | 1.4556 | 1.4528
293.15 K, x1 = 0.506 | 1.46794 | 1.46165 | 1.45457 | 1.44883 | 1.44603 | 1.44355 | 1.44297 | 1.44033
293.15 K, x1 = 0.605 | 1.45403 | 1.44826 | 1.44171 | 1.43642 | 1.43382 | 1.43151 | 1.43097 | 1.42851
293.15 K, x1 = 0.697 | 1.43966 | 1.43437 | 1.4285 | 1.42367 | 1.42129 | 1.41917 | 1.41867 | 1.41635
293.15 K, x1 = 0.782 | 1.42556 | 1.42081 | 1.41549 | 1.41115 | 1.40899 | 1.40703 | 1.40657 | 1.40444
293.15 K, x1 = 0.859 | 1.41172 | 1.40749 | 1.40275 | 1.39886 | 1.39688 | 1.3951 | 1.39469 | 1.39271
293.15 K, x1 = 0.897 | 1.40081 | 1.397 | 1.39273 | 1.38919 | 1.38738 | 1.38572 | 1.38534 | 1.38353
293.15 K, x1 = 0.932 | 1.39511 | 1.39153 | 1.3875 | 1.38415 | 1.38242 | 1.38084 | 1.38047 | 1.37874
293.15 K, x1 = 0.967 | 1.38917 | 1.38582 | 1.38206 | 1.37892 | 1.37727 | 1.37577 | 1.37542 | 1.37375
293.15 K, x1 = 1 | 1.38345 | 1.38034 | 1.37681 | 1.37386 | 1.3723 | 1.37087 | 1.37055 | 1.36896
298.15 K, x1 = 0.146 | 1.50896 | 1.50121 | 1.49239 | 1.48532 | 1.48187 | 1.47884 | 1.47816 | 1.47502
298.15 K, x1 = 0.277 | 1.4934 | 1.48619 | 1.47801 | 1.47142 | 1.46821 | 1.46538 | 1.46473 | 1.46178
298.15 K, x1 = 0.397 | 1.47979 | 1.47305 | 1.46545 | 1.45928 | 1.45629 | 1.45365 | 1.45303 | 1.45023
298.15 K, x1 = 0.506 | 1.46521 | 1.45896 | 1.45191 | 1.44622 | 1.44342 | 1.44095 | 1.44038 | 1.43776
298.15 K, x1 = 0.605 | 1.45129 | 1.44555 | 1.43909 | 1.43383 | 1.43125 | 1.42896 | 1.42842 | 1.42598
298.15 K, x1 = 0.697 | 1.43707 | 1.43182 | 1.42596 | 1.42117 | 1.41881 | 1.41669 | 1.41619 | 1.4139
298.15 K, x1 = 0.782 | 1.42305 | 1.41834 | 1.41304 | 1.40874 | 1.40658 | 1.40463 | 1.40417 | 1.40417
298.15 K, x1 = 0.859 | 1.41005 | 1.40512 | 1.40043 | 1.39655 | 1.3946 | 1.39284 | 1.39242 | 1.39049
298.15 K, x1 = 0.897 | 1.39862 | 1.39482 | 1.3906 | 1.38706 | 1.38527 | 1.38364 | 1.38326 | 1.38144
298.15 K, x1 = 0.932 | 1.39296 | 1.38941 | 1.3854 | 1.38208 | 1.38035 | 1.37878 | 1.37842 | 1.37669
298.15 K, x1 = 0.967 | 1.3871 | 1.38379 | 1.38002 | 1.37691 | 1.37526 | 1.37375 | 1.37341 | 1.37177
298.15 K, x1 = 1 | 1.38126 | 1.37816 | 1.37466 | 1.37174 | 1.37018 | 1.36876 | 1.36844 | 1.36686
303.15 K, x1 = 0.146 | 1.50611 | 1.49841 | 1.48963 | 1.48261 | 1.47918 | 1.47618 | 1.47549 | 1.47237
303.15 K, x1 = 0.277 | 1.4905 | 1.48332 | 1.47522 | 1.46865 | 1.46547 | 1.46268 | 1.46203 | 1.45908
303.15 K, x1 = 0.397 | 1.47698 | 1.47026 | 1.46273 | 1.45661 | 1.45363 | 1.451 | 1.45039 | 1.44761
303.15 K, x1 = 0.506 | 1.46241 | 1.45621 | 1.44918 | 1.44352 | 1.44075 | 1.4383 | 1.43773 | 1.43513
303.15 K, x1 = 0.605 | 1.44837 | 1.44266 | 1.43626 | 1.43107 | 1.42851 | 1.42623 | 1.42569 | 1.42326
303.15 K, x1 = 0.697 | 1.4344 | 1.42918 | 1.42331 | 1.41861 | 1.41625 | 1.41415 | 1.41365 | 1.41136
303.15 K, x1 = 0.782 | 1.42104 | 1.41634 | 1.41106 | 1.40674 | 1.4046 | 1.40267 | 1.40221 | 1.4001
303.15 K, x1 = 0.859 | 1.40698 | 1.40281 | 1.39813 | 1.3943 | 1.39235 | 1.39059 | 1.39018 | 1.38824
303.15 K, x1 = 0.897 | 1.39635 | 1.3926 | 1.38838 | 1.3849 | 1.38309 | 1.38146 | 1.38109 | 1.37929
303.15 K, x1 = 0.932 | 1.3908 | 1.38725 | 1.38329 | 1.37997 | 1.37826 | 1.37671 | 1.37634 | 1.37461
303.15 K, x1 = 0.967 | 1.38499 | 1.38168 | 1.37795 | 1.37485 | 1.37321 | 1.37172 | 1.37138 | 1.36976
303.15 K, x1 = 1 | 1.37917 | 1.37611 | 1.37261 | 1.36968 | 1.36815 | 1.36675 | 1.36643 | 1.36485
